The record followed here is BindingDB's records for doi:10.1111/j.1432-1033.1994.00489.x (Universit&Eacute, 1994).

For the assay, the target named is Histamine H1 receptor (Cavia porcellus, UniProt P31389).
Chain of Histamine H1 receptor (P31389 whole entry): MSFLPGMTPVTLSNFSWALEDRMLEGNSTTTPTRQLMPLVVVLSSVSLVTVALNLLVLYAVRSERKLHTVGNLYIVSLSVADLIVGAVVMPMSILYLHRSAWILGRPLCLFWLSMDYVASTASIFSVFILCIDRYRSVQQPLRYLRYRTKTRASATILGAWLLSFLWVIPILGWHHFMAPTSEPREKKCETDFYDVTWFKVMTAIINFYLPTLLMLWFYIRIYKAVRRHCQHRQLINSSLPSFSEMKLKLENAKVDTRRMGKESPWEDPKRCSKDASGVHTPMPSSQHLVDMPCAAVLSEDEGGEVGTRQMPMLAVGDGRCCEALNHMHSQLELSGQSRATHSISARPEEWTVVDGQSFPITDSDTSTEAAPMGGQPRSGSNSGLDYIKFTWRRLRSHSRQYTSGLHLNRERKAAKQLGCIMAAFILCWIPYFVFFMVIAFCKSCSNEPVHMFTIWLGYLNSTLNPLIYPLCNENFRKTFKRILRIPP

For `O=C(O)COCCN1CCN(C(c2ccccc2)c2ccc(Cl)cc2)CC1` (configuration not stated), the inhibitory constant (Ki) (in general, a measure of affinity in units of concentration, obtained from inhibition or displacement) worked out at 12.6 nM.

Regarding `Cc1ccc(/C(=C\CN2CCCC2)c2ccccn2)cc1` [Actahist], the affinity, expressed as Ki, was 0.31 nM.
